Reference: ChEMBL document CHEMBL1201862, “PubChem BioAssay data set” (2004)
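Briefly, cells in 96-well plates were exposed to five compound concentrations for 48 h, and endpoints were estimated by linear interpolation. GI50 = concentration required for 50% inhibition of growth.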 Active and inactive are the calls of the source. Cut-off read from the data, not from the text of the source: active = GI50 up to about 1.1 µM and inactive = higher.

Tests used:
Assay in all cases: NCI anticancer screen, dose series, 48 h
786-0 = test system: 786-0
A498 = test system: A498
A549 = test system: A549
ACHN = test system: ACHN
BT-549 = test system: BT-549
CAKI-1 = test system: CAKI-1
CCRF-CEM = test system: CCRF-CEM
COLO 205 = test system: COLO 205
DU-145 = test system: DU-145
EKVX = test system: EKVX
HCC 2998 = test system: HCC 2998
HCT-116 = test system: HCT-116
HCT-15 = test system: HCT-15
HL-60 = test system: HL-60
HOP-62 = test system: HOP-62
HOP-92 = test system: HOP-92
HT-29 = test system: HT-29
Hs-578T = test system: Hs-578T
IGROV-1 = test system: IGROV-1
K562 = test system: K562
KM12 = test system: KM12
LOX IMVI = test system: LOX IMVI
M14 = test system: M14
MCF7 = test system: MCF7
MDA-MB-231 = test system: MDA-MB-231
MDA-MB-435 = test system: MDA-MB-435
MDA-N = test system: MDA-N
MOLT-4 = test system: MOLT-4
Malme-3M = test system: Malme-3M
NCI-H226 = test system: NCI-H226
NCI-H23 = test system: NCI-H23
NCI-H460 = test system: NCI-H460
NCI-H522 = test system: NCI-H522
NCI/ADR-RES = test system: NCI/ADR-RES
OVCAR-3 = test system: OVCAR-3
OVCAR-4 = test system: OVCAR-4
OVCAR-5 = test system: OVCAR-5
OVCAR-8 = test system: OVCAR-8
PC-3 = test system: PC-3
RPMI-8226 = test system: RPMI-8226
RXF 393 = test system: RXF 393
SF-268 = test system: SF-268
SF-295 = test system: SF-295
SF-539 = test system: SF-539
SK-MEL-28 = test system: SK-MEL-28
SK-MEL-2 = test system: SK-MEL-2
SK-MEL-5 = test system: SK-MEL-5
SK-OV-3 = test system: SK-OV-3
SN12C = test system: SN12C
SNB-19 = test system: SNB-19
SNB-75 = test system: SNB-75
SR = test system: SR
SW-620 = test system: SW-620
T47D = test system: T47D
TK-10 = test system: TK-10
U-251 = test system: U-251
UACC-257 = test system: UACC-257
UACC-62 = test system: UACC-62
UO-31 = test system: UO-31

Measured: GI50

C=CCSC1=N/C(=C\c2ccccc2)C(=O)N1CC=C
inactive: 786-0 31.7 µM | A498 23.1 µM | A549 44.6 µM | ACHN 41.8 µM | BT-549 40.7 µM | CAKI-1 60.5 µM | CCRF-CEM 22.9 µM | COLO 205 41.6 µM | DU-145 > 86.5 µM | EKVX 22.5 µM | HCC 2998 28.9 µM | HCT-116 29.8 µM | HL-60 5.24 µM | HOP-62 99.1 µM | HOP-92 17.1 µM | HT-29 23.6 µM | Hs-578T 43 µM | IGROV-1 > 100 µM | K562 3.48 µM | KM12 38.8 µM | LOX IMVI 26.4 µM | M14 67.9 µM | MCF7 27.8 µM | MDA-MB-231 39.9 µM | MDA-MB-435 36.8 µM | MDA-N 30.3 µM | MOLT-4 2.7 µM | Malme-3M 47 µM | NCI-H226 28.5 µM | NCI-H23 56 µM | NCI-H460 41.6 µM | NCI-H522 31.2 µM | NCI/ADR-RES 45.1 µM | OVCAR-3 > 47.2 µM | OVCAR-4 40.6 µM | OVCAR-5 > 100 µM | OVCAR-8 32.7 µM | PC-3 24.8 µM | RPMI-8226 24.7 µM | RXF 393 20.2 µM | SF-268 6.85 µM | SF-295 58.1 µM | SF-539 84.1 µM | SK-MEL-28 > 83.8 µM | SK-MEL-2 29.6 µM | SK-MEL-5 17.8 µM | SK-OV-3 > 71.6 µM | SN12C 36.2 µM | SNB-19 > 100 µM | SNB-75 33.3 µM | SR 22.7 µM | SW-620 49.7 µM | T47D 29.2 µM | TK-10 > 74.6 µM | U-251 37.7 µM | UACC-257 33.2 µM | UACC-62 33.3 µM | UO-31 40.5 µM
35.2 µM: HCT-15

Brc1ccc2[nH]cc(-c3csc(-c4c[nH]c5ccccc45)n3)c2c1
inactive: 786-0 2.37 µM | A498 5.19 µM | A549 3.67 µM | ACHN 5.5 µM | BT-549 5.7 µM | CAKI-1 2.9 µM | CCRF-CEM 2.11 µM | COLO 205 2.08 µM | DU-145 3.52 µM | EKVX 2.69 µM | HCC 2998 2.08 µM | HCT-116 2.47 µM | HL-60 5.64 µM | HOP-62 4.34 µM | HOP-92 3 µM | HT-29 1.8 µM | Hs-578T 4.81 µM | IGROV-1 2.2 µM | K562 3.03 µM | KM12 2.3 µM | LOX IMVI 2.1 µM | M14 1.98 µM | MCF7 2.13 µM | MDA-MB-231 2.17 µM | MDA-MB-435 3.84 µM | MDA-N 2.88 µM | MOLT-4 2.05 µM | Malme-3M 3.03 µM | NCI-H226 1.82 µM | NCI-H23 2.39 µM | NCI-H460 2.61 µM | NCI-H522 1.81 µM | NCI/ADR-RES 2.75 µM | OVCAR-3 3.01 µM | OVCAR-4 5.42 µM | OVCAR-5 2.02 µM | OVCAR-8 4.9 µM | PC-3 3.54 µM | RPMI-8226 3.08 µM | RXF 393 3.61 µM | SF-268 2.66 µM | SF-295 2.42 µM | SF-539 4.72 µM | SK-MEL-28 5.06 µM | SK-MEL-2 3.17 µM | SK-MEL-5 2.24 µM | SK-OV-3 7.52 µM | SN12C 3.66 µM | SNB-19 3.32 µM | SNB-75 10.1 µM | SR 3.39 µM | SW-620 2.75 µM | T47D 4.24 µM | TK-10 3.61 µM | U-251 2.98 µM | UACC-257 5.07 µM | UACC-62 5.5 µM | UO-31 2.93 µM
2.33 µM: HCT-15

Cc1cccc2c(N)c3cccc(C(=O)NCCCNCCN)c3nc12
28.3 µM: HCT-15
inactive: 786-0 1.71 µM | A498 11.4 µM | ACHN 10.5 µM | BT-549 14.6 µM | CAKI-1 7.91 µM | CCRF-CEM 1.46 µM | COLO 205 6.37 µM | DU-145 3.59 µM | EKVX 13.8 µM | HCC 2998 4.35 µM | HCT-116 7.5 µM | HL-60 12.2 µM | HOP-62 3.53 µM | HOP-92 5.61 µM | HT-29 3.13 µM | IGROV-1 4.83 µM | K562 12.9 µM | KM12 4.8 µM | LOX IMVI 7.11 µM | M14 14.1 µM | MDA-MB-435 15.5 µM | MDA-N 13.7 µM | Malme-3M 5.57 µM | NCI/ADR-RES 25.9 µM | OVCAR-3 20.2 µM | OVCAR-4 1.87 µM | OVCAR-5 11 µM | OVCAR-8 5.32 µM | PC-3 14.3 µM | RPMI-8226 7.08 µM | RXF 393 3.4 µM | SF-295 4.45 µM | SF-539 2.17 µM | SK-MEL-28 15.5 µM | SK-MEL-2 16.3 µM | SK-MEL-5 7.11 µM | SK-OV-3 23.2 µM | SNB-19 3.09 µM | SR 2.04 µM | SW-620 8.43 µM | T47D 7.85 µM | TK-10 17.1 µM | U-251 1.3 µM | UACC-257 16.6 µM | UACC-62 4.38 µM | UO-31 19 µM
active: A549 0.596 µM | Hs-578T 0.23 µM | MCF7 0.679 µM | MDA-MB-231 0.593 µM | MOLT-4 0.155 µM | NCI-H226 0.311 µM | NCI-H23 1.01 µM | NCI-H460 1.1 µM | NCI-H522 < 0.01 µM | SF-268 0.124 µM | SN12C 0.121 µM | SNB-75 0.946 µM
